Reference: paper PMC6927412, “PMP–diketopiperazine adducts form at the active site of a PLP dependent enzyme involved in formycin biosynthesis” (Chemical Communications (Cambridge, England), 2019)

What was measured:
ForI [1] = target: T1, ForI (Streptomyces kaniharaensis, UniProt A0A5S8ZI02); test: UV-vis, mass spectrometry and crystal structure of the adduct; type: binding; conditions: covalent; reacts at PLP, bound species is the PMP-diketopiperazine adduct; 10 mM, pH 8, 4 °C
T1 construct: gene cof17; homodimer, active site from both monomers; residues 3 to 417 located in crystal
T1 sequence (A0A5S8ZI02 1-423): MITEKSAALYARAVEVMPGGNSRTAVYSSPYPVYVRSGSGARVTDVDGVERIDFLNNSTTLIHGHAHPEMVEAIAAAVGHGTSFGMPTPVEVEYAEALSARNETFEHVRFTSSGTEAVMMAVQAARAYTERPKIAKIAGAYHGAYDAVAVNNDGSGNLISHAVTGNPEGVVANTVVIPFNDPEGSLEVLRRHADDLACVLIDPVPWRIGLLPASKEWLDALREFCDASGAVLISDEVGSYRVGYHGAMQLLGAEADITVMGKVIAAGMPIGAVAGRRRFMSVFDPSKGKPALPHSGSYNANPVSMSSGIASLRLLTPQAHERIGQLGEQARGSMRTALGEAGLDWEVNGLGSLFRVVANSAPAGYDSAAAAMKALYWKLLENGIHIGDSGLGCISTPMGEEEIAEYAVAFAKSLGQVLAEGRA

ForI [2] = target: T1, ForI; test: X-ray crystal structure, […] Å; mass spectrometry; type: binding; conditions: pH 8
ForI [3] = target: T1, ForI; test: X-ray crystal structure, […] Å; type: binding; conditions: crystals incubated with L-Glu for 20 min; non-covalent
ForI [4] = target: T1, ForI; test: UV-vis spectrum of PLP cofactor; PMP form seen in crystal; type: biochemical; conditions: amino donor half-reaction; L-Glu itself not seen in density

N[C@@H]1CONC1=O [D-cycloserine]
UV-vis, mass spectrometry and crystal structure of the adduct (ForI [1]): Incubation of ForI with either D- or L-cycloserine immediately shows changes in the UV-vis spectrum

N[C@H]1CONC1=O [L-cycloserine]
UV-vis, mass spectrometry and crystal structure of the adduct (ForI [1]): Incubation of ForI with either D- or L-cycloserine immediately shows changes in the UV-vis spectrum

Cc1ncc(COP(=O)(O)O)c(/C=N/OC[C@H]2NC(=O)[C@@H](CON)NC2=O)c1O [PMP–diketopiperazine from D-cycloserine]
X-ray crystal structure, 1.5 Å; mass spectrometry (ForI [2]; covalent adduct of PLP cofactor formed on incubation with 10 mM D-cycloserine): identified the formation of external aldimine PLP–diketopiperazine adducts

Cc1ncc(COP(=O)(O)O)c(/C=N/OC[C@@H]2NC(=O)[C@H](CON)NC2=O)c1O [PMP–diketopiperazine from L-cycloserine]
X-ray crystal structure, 1.5 Å; mass spectrometry (ForI [2]; covalent adduct of PLP cofactor formed on incubation with 10 mM L-cycloserine): identified the formation of external aldimine PLP–diketopiperazine adducts

Cc1ncc(COP(=O)(O)O)c(CN)c1O [PMP]
X-ray crystal structure, 1.56 Å (ForI [3]): the pyridoxal co-factor is unattached to the enzyme, suggesting it to be PMP

N[C@@H](CCC(=O)O)C(=O)O [L-Glu]
UV-vis spectrum of PLP cofactor; PMP form seen in crystal (ForI [4]): Incubating ForI with L-Glu shows a rapid change in the UV-vis spectrum
